How the values were obtained:
[1] = tested on: H9C2 cardiomyoblasts; settings: H9C2, 10 and 20 μM, 24 or 48 h; difference not significant at 48 h
Experimental: Cytotoxicity of DOX and prodrugs in H9C2 cardiomyoblasts. Media from cells exposed for 24 or 48 h to 10 or 20 µM of c1, c2, DOX or vehicle (DMSO, final concentration 0.1% in all samples) was centrifuged to remove cells and cell debris, and supernatants were assessed spectrophotometrically by lactose dehydrogenase (LDH) assay to evaluate release into the media as a measure of cytotoxicity (n=6 or more). *, p<0.05; **, p<0.01; ***, p<0.001; ****, p<0.0001.
Cytotoxicity of c1, c2 and DOX was evaluated by measuring the release of lactate dehydrogenase (LDH) into the culture medium over time.
H9C2 and 4T1 cells were plated at a density of 10,000 per well in 96-well plates. Twenty-four h after plating, cells were treated with 10 or 20 µM DOX (from 20 mM stock dissolved in DMSO, for 0.1% final DMSO) and were incubated for 24 or 48 h. The extracellular medium was centrifuged at 12,000×g for 5 min to pellet cellular debris, and the supernatants were assessed for release of lactate dehydrogenase (LDH) using a colorimetric activity assay (Invitrogen) as directed and spectral detection (Benchmark or BioRad microplate reader). Values were used to determine % cytotoxicity as described in the kit, using treatment with lysis buffer to release all LDH into the medium (defining 100% release) or cells without treatment (to define 0% release).

[2] = tested on: H9C2 cardiomyoblasts; experiment: Uptake into H9C2 cardiomyoblasts by live-cell confocal microscopy; assay type: cell-based, rat; settings: imaging over 18 h
Experimental: FIG. 4. Uptake of DOX and prodrugs c1 and c2 by H9C2 cardiomyoblasts. H9C2 cells cultures grown overnight on chambered coverslips in media with 10% serum were switched to Fluorobrite DMEM imaging media supplemented with 5% serum and prepared for live-cell imaging on a Zeiss LSM 880 confocal microscope, then 10 µM of c1, c2, or DOX was added and images were taken every 10 min (averaged every 30 min) for 18 h. Approximately 20 cells present in each field of view were averaged for each sample and time point; normalized and averaged data from two replicates each±SEM were included for c1 and DOX. An earlier independent trial yielded very similar results (Fig. S1).
Uptake of DOX and prodrugs into H9C2 cardiomyoblasts. Before comparing the biological effects of treatments by DOX and prodrugs, it was important to know their time dependence of accumulation into the H9C2 cardiomyoblasts under investigation. For this, confocal microscopy of live cells in culture was used to track in real time the accumulation of the fluorescent molecules into the cells, allowing direct comparisons between c1, c2 and Dox. […] Thus, any biological effects observed using c1 rather than DOX will not be due to limited cellular uptake.
To evaluate drug uptake, H9C2 cells were plated at a density of 20,000 per well on 24 well #1.5 polymer chambered coverslips (Ibidi) in media including 10% FBS and allowed to adhere for ~20 h. Prior to imaging analysis, the media was replaced with Fluorobrite DMEM imaging media (Gibco) supplemented with 5% FBS. To 1 mL of media in each well was added either vehicle (DMSO), or a 20 mM stock solution of c1, c2, or DOX to give final concentrations of 10 or 20 µM drug and 0.1% DMSO. […] DOX and the prodrugs were detected with excitation by a 458 nm laser at 0.3% and emission from 535-648 nm.
Each position consisted of a 3 slice z-stack that was compressed with a maximum intensity projection for analysis. […] The mean intensity for both channels was calculated, normalized, and then averaged to 30 min time points.

[3] = Time-dependent DOX release from prodrugs in presence of H2O2 (LCMS); assay type: physicochemical; settings: prodrug 10 μM, H2O2 10 μM, ammonium bicarbonate buffer 0.1 M pH 7.4
Experimental: FIG. 1. Time-course for DOX release from prodrugs (10 μM) in ammonium bicarbonate buffer (0.1 M, pH 7.4) at room temperature and in the presence of H2O2 (10 μM). A calibration curve was used to determine the concentration of free DOX at each time point by LCMS. Plotted as the mean±standard error of the mean (SEM) from three independent experiments.
To confirm this reactivity, we incubated c1 (10 μM) with H2O2 (10 μM) at room temperature in ammonium bicarbonate buffer (0.1 M, pH 7.4). At various time points, an aliquot was removed and analyzed by LCMS. Using a calibration curve, we determined the percentage of released DOX over the course of two hours. […] For comparison, we also assessed the reactivity of c2 towards the same concentration of peroxides. Like c1, c2 also functioned as an H2O2-activated DOX prodrug, but with faster kinetics, as quantitative release of free DOX was realized within 60 min.
A stock solution of c1 (or c2, 10 mM) in DMSO and H2O2 (10 mM) in ammonium bicarbonate buffer (0.1M, pH 7.4) were prepared immediately prior to use. […] At various time points (0 min, 10 min, 35 min, 60 min, 80 min, 100 min, 120 min), a 1 mL (inject volume 60 μL) aliquot was removed and analyzed by LC-MS (using a C18 analytical column and eluting at 0.4 mL/min with a linear gradient (20-90% v/v) MeOH/H2O (0-2 min), followed by 90% v/v MeOH/H2O (2-19 min)). […]

[4] = tested on: caspase-3; experiment: Caspase-3 cleavage immunoblot in H9C2 cells; settings: H9C2, 10 or 20 μM, 24 h
Experimental: FIG. 6. […] H9C2 cells in culture were treated for 24 hr with c1, c2, DOX or vehicle (DMSO), then harvested into lysis buffer and immunoblotted for caspase-3. Data analyzed by ImageJ were used to assess the percent of the two bands present as the lower band.
We next evaluated apoptotic signaling through caspase-3 cleavage at 24 h to compare the experimental compounds.
To evaluate levels of caspase cleavage (using an antibody recognizing both cleaved and uncleaved, Cell Signaling, cat #9662), Nrf2 (antibody from Thermo Fisher, cat #PA5-27882), and HO-1 (antibody from Proteintech, cat #10701-1-AP), H9C2 cells were plated at a density of 450,000 per well in a 24-well plate, then treated 24 h later with 10 or 20 µM DOX and incubated another 24 h before harvesting. For some samples, 100 mM hydroxocobalamin (HO-Cbl) was added 5 min before drug treatment. Cells were harvested by removing media (and recovering any non-adherent cells by centrifugation for 5 min at 10,600×g, discarding the supernatant), and combining that with the 120 μL of lysis buffer added to each well. Lysis buffer [50 mM Tris-HCl at pH 8.0, with 100 mM NaCl, 100 µM diethylene triamine pentaacetic acid (DTPA), 20 mM β-glycerophosphate, 0.1% SDS, 0.5% Na Desoxycholate, and 0.5% Triton-X-100] was prepared by freshly adding protease and phosphatase inhibitors before use (1 mM PMSF, 10 μg/mL aprotinin, 1 mM Na3VO4, 10 mM NaF and 10 μg/mL leupeptin). Samples were further incubated on ice for 30 min, then centrifuged at high speed (20,800×g for 10 min) to remove cell debris, and supernatants were mixed with 5×SDS protein sample buffer for Western blot analysis following resolution of 40 μg per sample on 10% SDS-polyacrylamide gels. Protein concentrations of supernatants were determined using a BCA assay (Pierce). Antibodies were used at dilutions of 1:1000 (for HO-1 and caspase-3) or 1:3000 (for Nrf2).

[5] = tested on: Nrf2; experiment: Nrf2 and HO-1 immunoblots in H9C2 cells; assay type: cell-based, rat; settings: H9C2, relative to DMSO vehicle
Excerpt: The bar graphs below represent the mean±SEM. Results were statistically different between c1 and DOX in both cases (p=0.002 and p=0.019), and more marginally so between c1 and DMSO (p=0.011 and p.=0.025), for Nrf2 and HO-1, respectively.

Row | SMILES | cytotoxicity (LDH release) [1] | accumulation in cells compared with DOX [2] | time to quantitative release of free DOX [3] [min] | caspase-3 cleavage [4] | HO-1 expression (immunoblot) [5]
1 | COc1cccc2c1C(=O)c1c(O)c3c(c(O)c1C2=O)C[C@@](O)(C(=O)CO)C[C@@H]3O[C@H]1C[C@H](NC(=O)OCc2ccc(B3OC(C)(C)C(C)(C)O3)cc2)[C@H](O)[C@H](C)O1 [c2] | intermediate toxicity but more similar to DOX than c1 | as slow as or slower than Dox | ≤ 60 | neither c1 nor c2 at either 10 or 20 UM caused notable caspase-3 cleavage | 
2 | COc1cccc2c1C(=O)c1c(O)c3c(c(O)c1C2=O)C[C@@](O)(C(=O)CO)C[C@@H]3O[C@H]1C[C@H](N)[C@H](O)[C@H](C)O1 [DOX, Doxorubicin, reference compound] | more toxic than c1 |  |  |  | completely suppressed both

— US20260256922A1, “PRODRUGS USEFUL FOR REDUCING ANTHRACYCLINE CARDIOTOXICITY” (WAKE FOREST UNIVERSITY HEALTH SCIENCES, priority 2022, published 2026)
